Experimental data as given in PubChem BioAssay AID248 (DTP/NCI, 2004).
Values joined by “and” are separate entries in the source; they are usually repeats but may differ in a detail not shown here. Identical values can stand only once. Inconclusive results and toxic doses are left out. No stated cut-off is given here; in the data, active means T/C of 150% or more; inactive means T/C below 125%.

System: L1210 leukemia ip in BDF1 mice, survival T/C
Test: NCI In Vivo Anticancer Drug Screen. Data for tumor model L1210 Leukemia (intraperitoneal) in B6D2F1 (BDF1) mice
Details: endpoint: mean survival time, higher = longer survival
Procedure, shortened: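 Transplantable tumor model; survival measured in treated vs vehicle control mice. Value = treated/control.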

[1] = dose: 50.0 mg/kg/injection, schedule: Q01DX009 (ip), vehicle: saline with Tween-80
[2] = dose: 100.0 mg/kg/injection, schedule: Q01DX009 (ip), vehicle: saline with Tween-80
[3] = dose: 200.0 mg/kg/injection, schedule: Q01DX009 (ip), vehicle: saline with Tween-80
[4] = dose: 100.0 mg/kg/injection, schedule: Q01DX009 (ip), vehicle: Klucel (hydroxypropylcellulose) (HPC)
[5] = dose: 200.0 mg/kg/injection, schedule: Q01DX009 (ip), vehicle: Klucel (hydroxypropylcellulose) (HPC)
[6] = dose: 400.0 mg/kg/injection, schedule: Q01DX009 (ip), vehicle: Klucel (hydroxypropylcellulose) (HPC)
[7] = dose: 100.0 mg/kg/injection, schedule: Q04DX003 (ip), vehicle: Klucel (hydroxypropylcellulose) (HPC)
[8] = dose: 200.0 mg/kg/injection, schedule: Q04DX003 (ip), vehicle: Klucel (hydroxypropylcellulose) (HPC)
[9] = dose: 400.0 mg/kg/injection, schedule: Q04DX003 (ip), vehicle: Klucel (hydroxypropylcellulose) (HPC)
[10] = dose: 100.0 mg/kg/injection, schedule: Q04DX003 (ip), vehicle: saline with Tween-80
[11] = dose: 200.0 mg/kg/injection, schedule: Q04DX003 (ip), vehicle: saline with Tween-80
[12] = dose: 400.0 mg/kg/injection, schedule: Q04DX003 (ip), vehicle: saline with Tween-80
[13] = dose: 400.0 mg/kg/injection, schedule: Q01DX009 (ip), vehicle: saline with Tween-80
[14] = dose: 100.0 mg/kg/injection, schedule: Q01DX001 (ip), vehicle: saline
[15] = dose: 100.0 mg/kg/injection, schedule: Q01DX001 (ip), vehicle: other
[16] = dose: 200.0 mg/kg/injection, schedule: Q01DX001 (ip), vehicle: other
[17] = dose: 100.0 mg/kg/injection, schedule: Q04DX003 (ip), vehicle: saline
[18] = dose: 200.0 mg/kg/injection, schedule: Q04DX003 (ip), vehicle: saline
[19] = dose: 400.0 mg/kg/injection, schedule: Q04DX003 (ip), vehicle: saline

Measured: T/C

N#C/C(=C\C1CCC(OCC2CCCCC2)CC1)C1CCC([N+](=O)[O-])CC1 (configuration not stated)
inactive: dose: 25.0 mg/kg/injection, schedule: Q04DX002 (ip), vehicle: saline with Tween-80 97 % of control | dose: 50.0 mg/kg/injection, schedule: Q04DX002 (ip), vehicle: saline with Tween-80 102 % of control | dose: 100.0 mg/kg/injection, schedule: Q04DX002 (ip), vehicle: saline with Tween-80 100 % of control and 91 % of control

OC(C(c1ccccc1)N1CCCCC1)C(O)(c1ccccc1)c1ccccc1 (configuration not stated)
inactive: dose: 100.0 mg/kg/injection, schedule: Q01DX001 (ip), vehicle: saline sonified 97 % of control | dose: 200.0 mg/kg/injection, schedule: Q01DX001 (ip), vehicle: saline sonified 108 % of control | dose: 400.0 mg/kg/injection, schedule: Q01DX001 (ip), vehicle: saline sonified 93 % of control

O=C(O)c1c(I)c(I)c(I)c(I)c1C(=O)c1ccccc1
inactive: [1] 103 % of control | [2] 115 % of control | [3] 112 % of control

O=C(CCc1ccccc1)NC(=S)Nc1cc(C(F)(F)F)ccc1Cl
inactive: [4] 94 % of control | [5] 90 % of control | [6] 87 % of control

O=[N+]([O-])c1ccc2c(c1)=N/C(=N\c1nc(O)c(O)[nH]1)N=2
inactive: [7] 101 % of control | [8] 98 % of control | [9] 104 % of control

c1ccc([Si]2(c3ccccc3)[Si](c3ccccc3)(c3ccccc3)[Si](c3ccccc3)(c3ccccc3)[Si](c3ccccc3)(c3ccccc3)[Si](c3ccccc3)(c3ccccc3)[Si]2(c2ccccc2)c2ccccc2)cc1
inactive: [10] 102 % of control | dose: 160.0 mg/kg/injection, schedule: Q04DX002 (ip), vehicle: saline with Tween-80 86 % of control | [11] 94 % of control | dose: 400.0 mg/kg/injection, schedule: Q04DX002 (ip), vehicle: saline with Tween-80 86 % of control | [12] 96 % of control

N#Cc1ccc2c(c1)Nc1ccccc1S2
inactive: [4] 101 % of control | [7] 103 % of control | [5] 99 % of control | [8] 92 % of control | [6] 89 % of control | [9] 105 % of control

COC(OC)c1cc(=O)[nH]c(NC(=O)C(Cl)Cl)n1
inactive: dose: 25.0 mg/kg/injection, schedule: Q01DX009 (ip), vehicle: saline with Tween-80 90 % of control | [1] 107 % of control | [2] 106 % of control | [10] 98 % of control | [3] 89 % of control | [11] 104 % of control | [13] 93 % of control | [12] 94 % of control

N#COc1cccc(OCCOc2cccc(OC#N)c2)c1
inactive: [1] 99 % of control | dose: 50.0 mg/kg/injection, schedule: Q04DX003 (ip), vehicle: saline with Tween-80 97 % of control | dose: 100.0 mg/kg/injection, schedule: Q01DX001 (ip), vehicle: saline with Tween-80 89 % of control | [2] 94 % of control | [10] 90 % of control | dose: 200.0 mg/kg/injection, schedule: Q01DX001 (ip), vehicle: saline with Tween-80 87 % of control | [3] 100 % of control | [11] 87 % of control

C=COC(=O)NC(CCSC)C(=O)O (configuration not stated)
inactive: dose: 50.0 mg/kg/injection, schedule: Q01DX001 (ip), vehicle: saline 101 % of control | [14] 98 % of control

C=CCCn1cc(C)c(=O)[nH]c1=O
inactive: [4] 103 % of control | [5] 116 % of control | [6] 100 % of control

Cc1cc(C(C)(C)C)c(SC(=O)N(C)C)c(C(C)(C)C)c1
inactive: [10] 97 % of control | [11] 95 % of control

C/C=C(\C)C(=Nc1ccc(Cl)c(Cl)c1)N(C)C
inactive: dose: 222.0 mg/kg/injection, schedule: Q01DX Z (ip), vehicle: saline 102 % of control | dose: 333.0 mg/kg/injection, schedule: Q01DX Z (ip), vehicle: saline 100 % of control | dose: 500.0 mg/kg/injection, schedule: Q01DX Z (ip), vehicle: saline 118 % of control

O=C(CC(O)(c1ccccc1)c1ccccc1)Nc1ccccn1
inactive: [15] 89 % of control | [16] 89 % of control

CCOC(=O)c1ccccc1N(O)C(=O)NC12CC3CC(CC(C3)C1)C2
inactive: [10] 94 % of control | [11] 94 % of control | [12] 94 % of control

O=c1[nH]cc(C2OC(CO)C(O)C2O)c(=O)[nH]1 (configuration not stated)
inactive: dose: 100.0 mg/kg/injection, schedule: Q01DX005 (ip), vehicle: saline 119 % of control | dose: 200.0 mg/kg/injection, schedule: Q01DX005 (ip), vehicle: saline 97 % of control

[O-][N+]1=CCCC1
inactive: dose: 100.0 mg/kg/injection, schedule: Q01DX009 (ip), vehicle: saline 89 % of control | [17] 104 % of control | dose: 200.0 mg/kg/injection, schedule: Q01DX009 (ip), vehicle: saline 91 % of control | [18] 107 % of control | dose: 400.0 mg/kg/injection, schedule: Q01DX009 (ip), vehicle: saline 92 % of control | [19] 105 % of control

O=C(/C=C\c1ccc(NCc2ccc(C(=O)O)cc2)cc1)CCl
inactive: dose: 25.0 mg/kg/injection, schedule: Q04DX003 (ip), vehicle: Klucel (hydroxypropylcellulose) (HPC) 100 % of control | dose: 50.0 mg/kg/injection, schedule: Q01DX001 (ip), vehicle: carboxymethylcellulose (CMC) 91 % of control | dose: 50.0 mg/kg/injection, schedule: Q04DX003 (ip), vehicle: Klucel (hydroxypropylcellulose) (HPC) 90 % of control | [7] 95 % of control | dose: 200.0 mg/kg/injection, schedule: Q01DX001 (ip), vehicle: carboxymethylcellulose (CMC) 93 % of control | dose: 400.0 mg/kg/injection, schedule: Q01DX001 (ip), vehicle: carboxymethylcellulose (CMC) 98 % of control

Cc1ccc(S(=O)(=O)C2=CC(=O)c3ccccc3C2=O)cc1
inactive: dose: 75.0 mg/kg/injection, schedule: Q01DX001 (ip), vehicle: other 88 % of control

O=C(NC(Cc1ccccc1)C(=O)Oc1cc(Cl)c(Cl)cc1Cl)OCc1ccccc1 (configuration not stated)
inactive: [15] 91 % of control | [16] 91 % of control | dose: 400.0 mg/kg/injection, schedule: Q01DX001 (ip), vehicle: other 97 % of control

CCOP(=S)(NN=C1CCCCC1)OCC
inactive: [14] 104 % of control | dose: 200.0 mg/kg/injection, schedule: Q01DX001 (ip), vehicle: saline 101 % of control

COC(=O)CCC(NC(=O)c1cccc(N(C)C=O)c1)C(=O)OC (configuration not stated)
inactive: [1] 97 % of control | [2] 95 % of control | [3] 105 % of control

CCCC(C(=O)O)C(O)(CC(=O)O)C(=O)O (configuration not stated)
inactive: [17] 101 % of control | [18] 101 % of control | [19] 95 % of control

O=C(CN1C(=O)c2ccccc2C1=O)OC(c1ccccc1)c1ccccc1
inactive: [4] 102 % of control | [7] 98 % of control | [5] 104 % of control | [8] 96 % of control | [6] 104 % of control | [9] 96 % of control

Cc1cc2oc(=O)c(Cl)c(NCCO)c2c(C)c1Cl
inactive: [2] 104 % of control | [3] 96 % of control | [13] 95 % of control
